# Experimental data: US8273780B2, “Polycyclic antagonists of lysophosphatidic acid receptors” (Amira Pharmaceuticals, Inc., priority 2009, dated 2012)
# pIC50: −log10 of the molar value.
# Assays:
# Type in all cases: cell-based
# [1] = test system: human A2058 melanoma cells; assay: LPA1 chemotaxis assay; settings: 100 nM LPA, read-out: inhibition of LPA-driven chemotaxis IC50
# Experimental: Chemotaxis of the A2058 human melanoma cells was measured using the Neuroprobe ChemoTx® System plates (8 μM pore size, 5.7 mm diameter sites). The filter sites were coated with 0.001% fibronectin (Sigma) in 20 mM Hepes, pH 7.4 and allowed to dry. A2058 cells were serum-starved for 24 hours, then harvested with Cell Stripper and resuspended in DMEM containing 0.1% fatty-acid-free bovine serum albumin (BSA) to a concentration of 1×10^6/ml. Cells were mixed with an equal volume of test compound (2×) in DMEM containing 0.1% fatty-acid-free BSA and incubated at 37° C. for 15 minutes. LPA (100 nM in DMEM containing 0.1% fatty-acid-free BSA) or vehicle was added to each well of the lower chamber and 50 μl of the cell suspension/test compound mix was applied to the upper portion of the ChemoTx plate. Plates were incubated at 37° C. for three hours and then the cells removed from the upper portion by rinsing with PBS and scraping. The filter was dried then stained with HEMA 3 Staining System (Fisher Scientific). The absorbance of the filter was read at 590 nm and IC50s were determined using Symyx Assay Explorer.
# Human LPA1 = target: T1, Human LPA1 (Homo sapiens, UniProt Q92633); assay: LPA1 calcium flux assay; settings: CHO cells expressing human LPA1, 10 nM LPA; read-out: HLPA1 Ca Flux IC50
# T1 construct: the full-length cDNA for human LPA1 was obtained by PCR of the reverse transcription reaction; expressed in transfected cells
# T1 sequence (Q92633 whole entry): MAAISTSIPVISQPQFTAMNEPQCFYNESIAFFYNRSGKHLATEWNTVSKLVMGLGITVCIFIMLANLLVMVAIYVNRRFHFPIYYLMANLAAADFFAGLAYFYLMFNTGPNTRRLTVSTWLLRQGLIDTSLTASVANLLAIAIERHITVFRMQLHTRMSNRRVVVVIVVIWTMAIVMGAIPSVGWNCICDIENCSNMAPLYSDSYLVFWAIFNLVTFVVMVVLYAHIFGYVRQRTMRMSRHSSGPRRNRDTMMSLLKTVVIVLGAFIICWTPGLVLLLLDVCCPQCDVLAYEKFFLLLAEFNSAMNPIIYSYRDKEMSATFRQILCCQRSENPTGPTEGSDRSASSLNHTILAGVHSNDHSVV
# Experimental: A 1.1 kb cDNA encoding the human LPA1 receptor was cloned from human lung. Human lung RNA (Clontech Laboratories, Inc. USA) was reverse transcribed using the RETROscript kit (Ambion, Inc.) and the full-length cDNA for human LPA1 was obtained by PCR of the reverse transcription reaction. The nucleotide sequence of the cloned human LPA1 was determined by sequencing and confirmed to be identical to the published human LPA1 sequence (An et al. Biochem. Biophys. Res. Commun. 231:619 (1997). The cDNA was cloned into the pcDNA5/FRT expression plasmid and transfected in CHO cells using lipofectamine 2000 (Invitrogen Corp., USA). Clones stably expressing human LPA1 were selected using hygromycin and identified as cells that show Ca-influx in response to LPA.
# (§1) Human LPA1 or LPA3 expressing CHO cells are seeded at 20,000-45,000 cells per well in a 96-well poly-D-lysine coated plate one or two days before the assay. Prior to the assay, the cells are washed once with PBS and then cultured in serum-free media overnight. On the day of the assay, a calcium indicator dye (Calcium 4, Molecular Devices) in assay buffer (HBSS with Ca^2+and Mg^2+ and containing 20 mM Hepes and 0.3% fatty-acid free human serum albumin) is added to each well and incubation continued for 1 hour at 37° C. 10 μl of test compounds in 2.5% DMSO are added to the cells and incubation continued at room temperature for 30 minutes. Cells are the stimulated by the addition of 10 nM LPA and intracellular Ca^2+ measured using the Flexstation 3 (Molecular Devices). IC50s are determined using Graphpad prism analysis of drug titration curves.
# Human LPA3 = target: T2, Human LPA3 (Homo sapiens, UniProt Q9UBY5); assay: LPA3 calcium flux assay; settings: CHO cells expressing human LPA3, 10 nM LPA; read-out: HLPA3 Ca Flux IC50
# T2 construct: The full-length cDNA fragment for human LPA3 was obtained by PCR from the vector; expressed in transfected cells; cDNA from the Missouri S&T cDNA Resource Center
# T2 sequence (Q9UBY5 1-353): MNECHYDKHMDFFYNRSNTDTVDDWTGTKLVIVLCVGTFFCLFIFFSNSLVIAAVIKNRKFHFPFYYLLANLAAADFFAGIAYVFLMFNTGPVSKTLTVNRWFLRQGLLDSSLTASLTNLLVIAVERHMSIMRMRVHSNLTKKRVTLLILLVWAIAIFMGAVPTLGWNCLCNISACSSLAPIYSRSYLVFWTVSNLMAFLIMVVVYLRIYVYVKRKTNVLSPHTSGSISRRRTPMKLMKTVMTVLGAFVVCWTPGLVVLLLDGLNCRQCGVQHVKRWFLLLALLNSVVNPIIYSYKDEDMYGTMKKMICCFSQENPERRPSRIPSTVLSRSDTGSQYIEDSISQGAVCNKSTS
# Experimental: A vector containing the human LPA3 receptor cDNA was obtained from the Missouri S&T cDNA Resource Center (www.cdna.org). The full-length cDNA fragment for human LPA3 was obtained by PCR from the vector. The nucleotide sequence of the cloned human LPA3 was determined by sequencing and confirmed to be identical to the published human LPA3 sequence (NCBI accession number NM_012152). The cDNA was cloned into the pcDNA5/FRT expression plasmid and transfected in CHO cells using lipofectamine 2000 (Invitrogen Corp., USA). Clones stably expressing human LPA3 were selected using hygromycin and identified as cells that show Ca-influx in response to LPA.
# as §1
Structure (SMILES),pIC50 [1],pIC50 (Human LPA1),pIC50 (Human LPA3)
"Cc1noc(-c2ccc(-c3ccc(C4(C(=O)NS(C)(=O)=O)CC4)cc3)cc2)c1NC(=O)O[C@H](C)c1ccccc1 [Compound 35, {5-[4′-(1-Methanesulfonylaminocarbonyl-cyclopropyl)-biphenyl-4-yl]-3-methyl-isoxazol-4-yl}-carbamic acid (R)-1-phenyl-ethyl ester]",> 7.00,> 6.52,5.00 to 6.00
"Cc1noc(-c2ccc(-c3ccc(C4(c5nnn[nH]5)CC4)cc3)cc2)c1NC(=O)O[C@H](C)c1ccccc1 [Compound 39, (3-Methyl-5-{4′-[1-(1H-tetrazol-5-yl)-cyclopropyl]-biphenyl-4-yl}-isoxazol-4-yl)-carbamic acid (R)-1-phenyl-ethyl ester]",> 7.00,> 6.52,5.00 to 6.00
"Cc1noc(-c2ccc(-c3ccc(C4(c5nc(=O)o[nH]5)CC4)cc3)cc2)c1NC(=O)O[C@H](C)c1ccccc1 [Compound 38, (3-Methyl-5-{4′-[1-(5-oxo-2,5-dihydro-[1,2,4]oxadiazol-3-yl)-cyclopropyl]-biphenyl-4-yl}-isoxazol-4-yl)-carbamic acid (R)-1-phenyl-ethyl ester]",> 7.00,> 6.52,5.00 to 6.00
"Cc1ccc([C@@H](C)OC(=O)Nc2c(C)noc2-c2ccc(-c3ccc(C4(C(=O)O)CC4)cc3)cc2)cc1 [Compound 16, 1-{4′-[3-Methyl-4-((R)-1-p-tolyl-ethoxycarbonylamino)-isoxazol-5-yl]-biphenyl-4-yl}-cyclopropanecarboxylic acid]",> 7.00,> 6.52,5.00 to 6.00
"Cc1noc(-c2ccc(-c3ccc(C4(C(=O)O)CC4)cc3)cc2)c1NC(=O)OC(C)C1=C(Cl)CCCC1 (centres unmarked) [Compound 21, 1-(4′-{4-[1-(2-Chloro-cyclohex-1-enyl)-ethoxycarbonylamino]-3-methyl-isoxazol-5-yl}-biphenyl-4-yl)-cyclopropanecarboxylic acid]",> 7.00,> 6.52,> 6.52
"COc1cc(-c2ccc(C3(C(=O)NS(C)(=O)=O)CC3)cc2)ccc1-c1onc(C)c1NC(=O)O[C@H](C)c1cccc(C(F)(F)F)c1 [Compound 41, {5-[4′-(1-Methanesulfonylaminocarbonyl-cyclopropyl)-3-methoxy-biphenyl-4-yl]-3-methyl-isoxazol-4-yl}-carbamic acid (R)-1-(3-trifluoromethyl-phenyl)-ethyl ester]",,> 6.52,6.00 to 6.52
"Cc1noc(-c2ccc(-c3ccc(C4(C(=O)NS(=O)(=O)c5ccccc5)CC4)cc3)cc2)c1NC(=O)O[C@H](C)c1ccccc1 [Compound 36, {5-[4′-(1-Benzenesulfonylaminocarbonyl-cyclopropyl)-biphenyl-4-yl]-3-methyl-isoxazol-4-yl}-carbamic acid (R)-1-phenyl-ethyl ester]",> 7.00,> 6.52,5.00 to 6.00
"Cc1noc(-c2ccc(-c3ccc(C4(C(=O)O)CC4)cc3)cc2)c1NC(=O)O[C@H](C)c1ccc(C#N)cc1 [Compound 18, 1-(4′-{4-[(R)-1-(4-Cyano-phenyl)-ethoxycarbonylamino]-3-methyl-isoxazol-5-yl}-biphenyl-4-yl)-cyclopropanecarboxylic acid]",,> 6.52,5.00 to 6.00
"Cc1noc(-c2ccc(-c3ccc(C4(C(=O)O)CC4)cc3)cc2)c1NC(=O)O[C@H](C)c1cc(Br)cc(Br)c1 [Compound 32, 1-(4′-{4-[(R)-1-(3,5-Dibromo-phenyl)-ethoxycarbonylamino]-3-methyl-isoxazol-5-yl}-biphenyl-4-yl)-cyclopropanecarboxylic acid]",,> 6.52,5.00 to 6.00
"Cc1noc(-c2ccc(-c3ccc(C4(C(=O)O)CC4)cc3)cc2)c1NC(=O)OC(C)C1CCCCC1 (centres unmarked) [Compound 2, 1-{4′-[4-(1-Cyclohexyl-ethoxycarbonylamino)-3-methyl-isoxazol-5-yl]-biphenyl-4-yl}-cyclopropanecarboxylic acid]",,> 6.52,5.00 to 6.00

# Results, then the compound that gave them:
pIC50 [1],pIC50 (Human LPA1),pIC50 (Human LPA3),Structure (SMILES)
> 7.00,> 6.52,5.00 to 6.00,"Cc1noc(-c2ccc(-c3ccc(C4(C(=O)O)CC4)cc3)cc2)c1NC(=O)O[C@H](C)c1ccccc1C#N [Compound 19, 1-(4′-{4-[(R)-1-(2-Cyano-phenyl)-ethoxycarbonylamino]-3-methyl-isoxazol-5-yl}-biphenyl-4-yl)-cyclopropanecarboxylic acid]"
> 7.00,> 6.52,6.00 to 6.52,"Cc1noc(-c2ccc(-c3ccc(C4(C(=O)O)CC4)cc3)cc2)c1NC(=O)O[C@H](C)c1ccccc1Cl [Compound 8, 1-(4′-{4-[(R)-1-(2-Chloro-phenyl)-ethoxycarbonylamino]-3-methyl-isoxazol-5-yl}-biphenyl-4-yl)-cyclopropanecarboxylic acid]"
> 7.00,> 6.52,6.00 to 6.52,"CCc1noc(-c2ccc(-c3ccc(C4(C(=O)O)CC4)cc3)cc2)c1NC(=O)O[C@H](C)c1ccccc1 [Compound 29, 1-{4′-[3-Ethyl-4-((R)-1-phenyl-ethoxycarbonylamino)-isoxazol-5-yl]-biphenyl-4-yl}-cyclopropanecarboxylic acid]"
> 7.00,> 6.52,< 5.00,"Cc1noc(-c2ccc(-c3ccc(C4(C(=O)O)CC4)cc3)cc2)c1NC(=O)OCc1ccccc1 [Compound 4, 1-[4′-(4-Benzyloxycarbonylamino-3-methyl-isoxazol-5-yl)-biphenyl-4-yl]-cyclopropanecarboxylic acid]"
,> 6.52,5.00 to 6.00,"Cc1noc(-c2ccc(-c3ccc(C4(C(=O)O)CCC4)cc3)cc2)c1NC(=O)O[C@H](C)c1ccccc1 [Compound 10, 1-{4′-[3-Methyl-4-((R)-1-phenyl-ethoxycarbonylamino)-isoxazol-5-yl]-biphenyl-4-yl}-cyclobutanecarboxylic acid]"
> 7.00,> 6.52,6.00 to 6.52,"Cc1cccc([C@@H](C)OC(=O)Nc2c(C)noc2-c2ccc(-c3ccc(C4(C(=O)O)CC4)cc3)cc2)c1 [Compound 17, 1-{4′-[3-Methyl-4-((R)-1-m-tolyl-ethoxycarbonylamino)-isoxazol-5-yl]-biphenyl-4-yl}-cyclopropanecarboxylic acid]"
,> 6.52,< 5.00,"Cc1noc(-c2ccc(-c3ccc(C4(C(=O)O)CC4)cc3)cc2)c1NC(=O)O[C@@H](C)c1ccccc1 [Compound 27, 1-{4′-[3-Methyl-4-((S)-1-phenyl-ethoxycarbonylamino)-isoxazol-5-yl]-biphenyl-4-yl}-cyclopropanecarboxylic acid]"
,> 6.52,5.00 to 6.00,"Cc1noc(-c2ccc(-c3ccc(C4(C(=O)O)CCCC4)cc3)cc2)c1NC(=O)O[C@H](C)c1ccccc1 [Compound 11, 1-{4′-[3-Methyl-4-((R)-1-phenyl-ethoxycarbonylamino)-isoxazol-5-yl]-biphenyl-4-yl}-cyclopentanecarboxylic acid]"
